For one data set, the system named is Tra2β. The data set is described as follows: Immunoblot of Tra2β in HeLa rtTA-HIV-ΔMls cells. In kind it is cell-based, human. The conditions noted are these: 3 d with ~IC50s of CSs. From the text:
Figure 4 CSs suppress HIV-1 gene expression by altering viral RNA processing. […] (a,b) CSs induce oversplicing of HIV-1 RNAs (n ≥ 3, mean, s.e.m.). (a) Diagram of the primer positions (arrow heads) used for qRT-PCR. (b) Graph of the relative amount of US (black), SS (white), and MS (gray) HIV-1 RNAs in cells treated with various CSs. (c) Nuclear export of HIV-1 US RNAs in cells is altered by CSs (representative n ≥ 4). HIV-1 US RNAs were localized by FISH after treating HeLa rtTA-HIV(Gag-GFP) cells as described above but with ~IC90s of CSs. Nuclei were stained by DAPI and images captured at 630 × magnification. […] SRp20, Tra2β, and tubulin were analyzed by immunoblot of HeLa rtTA-HIV-ΔMls cells treated as described above except cells of this representative blot were treated 3 d with ~IC50s of CSs. […]
To monitor HIV-1 gene expression or replication, Gag release into cell culture supernatants were assayed by ELISA using a p24^CA antigen capture assay kit (AIDS & Cancer Virus Program, NCI-Frederick, Frederick, MD USA). […] For analysis of HIV-1 and SR protein expression (and phosphorylation states with calf intestinal alkaline phosphatase treatments), cells were lysed and analyzed by western blot as previously outlined. […] Activation of MAPKs was determined by western blot quantitation and calculation of phospho/total protein levels. […]

In data set [1] the test system is PBMCs from HIV-infected patients. In words: Cell viability by XTT in HIV-infected patient PBMCs. In kind it is cell-based, human. The conditions noted are these: up to 20 d of culture, relative to controls. On the procedure:
Figure 2 CSs inhibit the growth of clinical strains of HIV isolated from HIV infected patients. PBMCs from HIV infected patients were depleted of CD8^+ T cells (Supplementary Fig. S3), activated by anti-CD3 and anti-CD28 antibodies, and treated 20 d with indicated concentrations of drug/compound. HIV particle formation was quantitated by p24^CA ELISA of cell supernatants and viability of cells were assayed by XTT. […] (a–e) CSs potently impair the outgrowth of HIV from HIV-infected PBMCs (n = 3, mean, s.e.m.). Graphs of viral growth (p24 protein levels) and cell viability (gray circles, adjacent y-axis) of cells treated with drug/compounds (red triangles) or DMSO (black circles) are shown. The drug 3TC and the CS digoxin (d–e) were provided for comparison. […] Dose-response curves of CS effects on HIV replication (relative Gag expression, black circles) and cell viability (gray circles) were measured on day 14.
Human PBMCs were obtained for experiments from drug-naïve HIV-infected patients, depleted of CD8^+ T cells using Dynabeads CD8 (Invitrogen, #111.47D), activated with anti-CD3 and anti-CD28 antibodies, and treated as previously described and above[10],[11]. […] HIV growth in cultures was monitored by p24^CA ELISA of cell supernatants harvested (detailed below) and the effect of compounds on cell viability were monitored by XTT assay.
Background: Tetrazolium assays rely on reduction of a dye to a coloured formazan, in cell work by metabolically active cells.

The text below walks through data of paper PMC5770468, “Cardiac glycoside/aglycones inhibit HIV-1 gene expression by a mechanism requiring MEK1/2-ERK1/2 signaling” (Scientific Reports, 2018).

The structures appear in SMILES notation.

Take `CC(=O)O[C@H]1C[C@H](O[C@H]2[C@@H](O)C[C@H](O[C@H]3[C@@H](O)C[C@H](O[C@H]4CC[C@@]5(C)[C@H](CC[C@@H]6[C@@H]5C[C@@H](O)[C@]5(C)[C@@H](C7=CC(=O)OC7)CC[C@]65O)C4)O[C@@H]3C)O[C@@H]2C)O[C@H](C)[C@H]1O[C@@H]1O[C@H](CO)[C@@H](O)[C@H](O)[C@H]1O` [Lanatoside C]: the “abundance of a modified species of Tra2β” value in the data set with Tra2β is reported as “no effect”.
As for `C[C@H]1O[C@@H](O[C@H]2[C@@H](O)C[C@H](O[C@H]3[C@@H](O)C[C@H](O[C@H]4CC[C@@]5(C)[C@H](CC[C@@H]6[C@@H]5CC[C@]5(C)[C@@H](C7=CC(=O)OC7)CC[C@]65O)C4)O[C@@H]3C)O[C@@H]2C)C[C@H](O)[C@@H]1O` [Digitoxin], the “cell viability of HIV-infected PBMCs” value in data set [1] was “no observable changes in cell viability”.
Consider `C[C@]12CC[C@H](O)C[C@H]1CC[C@@H]1[C@@H]2CC[C@]2(C)[C@@H](C3=CC(=O)OC3)CC[C@]12O` [Digitoxigenin], for which the “abundance of a modified species of Tra2β” value in the data set on Tra2β is on record as “no effect”. Moreover, the “cell viability of HIV-infected PBMCs” value in data set [1] is “no observable changes in cell viability”.
